Measured values reported in article PMC9607353, “Combined In Silico and In Vitro Evidence Supporting an Aurora A Kinase Inhibitory Role of the Anti-Viral Drug Rilpivirine and an Anti-Proliferative Influence on Cancer Cells” (Pharmaceuticals, 2022).

Key:
Assay in all cases: kinase activity assay (ADP-Glo or radioisotope-based), dose-response; Ki from IC50 by Cheng-Prusoff
Format in all cases: biochemical
Aurora A kinase = biological target: T1, Aurora A kinase (Homo sapiens, UniProt O14965)
T1 construct: gene AURKA
T1 sequence (O14965 1-403): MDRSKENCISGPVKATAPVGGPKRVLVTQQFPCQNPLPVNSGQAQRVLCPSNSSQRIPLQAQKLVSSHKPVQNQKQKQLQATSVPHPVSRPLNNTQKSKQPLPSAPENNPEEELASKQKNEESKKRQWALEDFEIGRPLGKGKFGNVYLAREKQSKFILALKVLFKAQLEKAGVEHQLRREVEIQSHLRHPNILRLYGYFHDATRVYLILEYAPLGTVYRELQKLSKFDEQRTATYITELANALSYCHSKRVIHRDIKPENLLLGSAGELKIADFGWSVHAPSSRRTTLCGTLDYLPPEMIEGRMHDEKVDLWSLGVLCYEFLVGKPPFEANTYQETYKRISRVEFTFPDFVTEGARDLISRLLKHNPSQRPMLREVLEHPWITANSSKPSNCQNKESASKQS

Aurora B kinase = biological target: T2, Aurora B kinase (Homo sapiens, UniProt Q96GD4)
T2 construct: gene AURKB
T2 sequence (Q96GD4 whole entry): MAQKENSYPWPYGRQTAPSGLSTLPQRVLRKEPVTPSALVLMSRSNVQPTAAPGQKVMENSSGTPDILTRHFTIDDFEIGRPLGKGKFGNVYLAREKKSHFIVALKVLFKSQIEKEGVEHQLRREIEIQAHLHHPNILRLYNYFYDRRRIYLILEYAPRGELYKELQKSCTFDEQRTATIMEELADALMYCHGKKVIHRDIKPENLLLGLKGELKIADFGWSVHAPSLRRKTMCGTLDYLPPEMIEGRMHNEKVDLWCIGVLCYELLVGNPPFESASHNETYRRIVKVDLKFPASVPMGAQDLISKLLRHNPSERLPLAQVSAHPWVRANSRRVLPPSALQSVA

PIM1 kinase = PIM1 kinase (Homo sapiens, UniProt P11309)
PIM1 kinase, sequence (P11309 whole entry): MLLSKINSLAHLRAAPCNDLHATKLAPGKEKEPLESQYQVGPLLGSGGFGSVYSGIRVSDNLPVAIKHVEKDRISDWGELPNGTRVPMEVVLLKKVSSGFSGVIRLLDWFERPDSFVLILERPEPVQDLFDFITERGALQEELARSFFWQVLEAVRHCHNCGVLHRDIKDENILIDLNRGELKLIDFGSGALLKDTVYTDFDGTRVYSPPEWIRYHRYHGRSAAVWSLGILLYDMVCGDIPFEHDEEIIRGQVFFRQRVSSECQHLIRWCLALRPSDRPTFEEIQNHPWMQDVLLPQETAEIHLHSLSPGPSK

- Ki (Aurora A kinase): 116 nM
- Ki (Aurora B kinase): 1820 nM
- Ki (PIM1 kinase): 522 nM
SMILES: Cc1cc(/C=C/C#N)cc(C)c1Nc1ccnc(Nc2ccc(C#N)cc2)n1 [rilpivirine, 4-[[4-[[4-[(1E)-2-cyanoethenyl]-2,6-dimethylphenyl]amino]-2-pyrimidinyl]amino]benzonitrile]
